# Assays:
# [1] = assay type: in vivo, Sprague-Dawley rats; settings: relative to the other configurational stereoisomers; in words
# Procedure: About 0.525 g (±0.025 g) of rat liver is weighed out accurately and placed in a 50 mL polypropylene tube. 10 mL of acetone are added and the suspension is homogenized using an Ultra-Turrax® homogenizer/disperser for a time of about 30 seconds. The homogenizer/disperser shaft is rinsed with hot water and then twice with 20 mL of acetone in a polypropylene tube. The homogenate is centrifuged for 5 minutes at a centrifugation speed of 3000 rpm (revolutions per minute). The supernatant is collected and transferred into a test tube. The sample is subjected to evaporation under a stream of nitrogen (N2) at a temperature of 40° C. so as to form a dry extract.
# 1 mL of acetonitrile is added to the tube containing the dry extract so as to dissolve it. […]
# The configurational stereoisomers of flocoumafen are separated by high-pressure liquid chromatography using a LUX® Cellulose-4 chiral column (00F-4490-B0, Phenomenex, Le Pecq, France) as stationary phase and a mixture formed from acetonitrile (A) and water comprising 0.1% by volume of formic acid (B), with an A/B volume ratio of 92/8, as mobile phase with a flow rate of the liquid mobile phase in the chromatography column of 0.25 mL/minute. […] In particular, the MRM (“Multiple Reaction Monitoring”) transitions m/z 541.1→382.1 and m/z 541.1→161, corresponding to the flocoumafen signal, are detected. […]
# [2] = tested on: target rodent pests; assay: Rodenticidal efficacy; assay type: in vivo; settings: relative to the other configurational stereoisomers; in words, no data shown
smiles,measurement,setting,value
"O=c1oc2ccccc2c(O)c1C1CC(c2ccc(OCc3ccc(C(F)(F)F)cc3)cc2)Cc2ccccc21 (single isomer, unassigned) [Enantiomer E4, flocoumafen]",Persistence in the liver,[1],more persistent in the liver of the target rodent pests
same,Rodenticidal efficacy,[2],increased rodenticidal efficacy relative to the other configurational stereoisomers
